From patent US9610294B2, “Methods and compositions for the treatment of fluid accumulation in and/or under the retina” (UNIVERSITE PARIS DESCARTES, priority 2010, dated 2017)
“Also recorded” adds a separate entry of the source.

Columns and labels:
[1] = tested on: AQP4; assay: AQP4 expression (real-time PCR, western blot) in rat RMG primary cultures and retinal explants; format: cell-based
Procedure: (§1) Rat RMG cells were obtained as described (deKozak, Y., Naud, M. C., Bellot, J., Faure, J. P., and Hicks, D. (1994) Differential tumor necrosis factor expression by resident retinal cells from experimental uveitis-susceptible and -resistant rat strains. J Neuroimmunol 55, 1-9). Briefly, rats at postnatal (PN) day 17 (when RMG cells are mature) were sacrificed and eyes enucleated. Intact eyeballs were maintained in DMEM overnight at room temperature in the dark, and then incubated 45 min with 2 mg/ml trypsin/collagenase I at 37° C. The neural retinas were separated from the lens and vitreous, cut into small fragments and plated in Petri dishes containing DMEM supplemented with 10% FCS, 100 units/ml penicillin, 100 µg/ml streptomycin, and 0.2% amphotericin B. Cultures were maintained at 37° C. in a humidified atmosphere containing 5% CO2. After 5 to 6 days, the cultures were washed extensively with medium so that only a strongly adherent flat cell population remained.
(§2) Müller cells were seeded in 6-well tissue culture plates (Becton Dickinson, Le Pont de Claix, France). Rat PN17 RMG cells were maintained in their initial Petri dishes. Sub confluent (80%) cells were incubated in media supplemented with 10% steroid-free (charcoal treated) FCS for 24 hrs. Corticosteroid (Sigma-Aldrich, Saint Quentin Fallavier, France) treatments were then applied respectively for a further 24 hrs: 10 nM aldosterone, 10 nM aldosterone plus 1).IM RU38486 (GR-specific antagonist), 10 nM aldosterone plus 1 µM RU26752 (MR-specific antagonist) or 1 µM dexamethasone. The steroids were previously dissolved in 2% steroid-free FCS media containing 0.1% ethanol. Control cells were treated with 0.1% ethanol in media.
(§3) After enucleation, rat retinas were isolated immediately under aseptic conditions and cut into 4 pieces. They were then transferred onto a Cyclopore 0.2).Im polycarbonate membrane (Whatman, Maidstone, England), and flatmounted with the vitreal side up. The support membranes were placed in 6-well tissue culture plates containing 2 ml DMEM supplemented with 10% steroid-free FCS, 1% penicillin-streptomycin and 0.1% amphotericin B. Explants were treated with corticosteroids as described for cultured cells. Similarly, the dose-dependent effect of aldosterone (0.1-100 nM) was analyzed on retinal explants in separate experiments.
(§4) Total RNA was isolated from the treated RMG cells and retinal explants using RNeasy Mini Kit (Qiagen, Courtaboeuf, France). First-strand cDNA was synthesized after DNase I (Qiagen) treatment using random primers (Invitrogen) and superscript II reverse transcriptase (Invitrogen). Transcript levels of ENaC-a, Kir4.1 and AQP4 were analyzed by real-time PCR performed in 7500 Real-Time PCR System (Applied Biosystems, Foster City, Calif., USA) with either TaqMan® (Applied Biosystems) or SYBR® Green (Invitrogen, Cergy Pontoise, France) detection. The 18S was used as internal control.
(§5) Retinal explants were homogenized in Np40 buffer in the presence of protease inhibitors. The protein concentration was determined by the Bradford method. Equal amounts of protein (12 .ug) were separated on Novex® 4%-12% Tris-Glycine gel (Invitrogen), transferred to nitrocellulose, and the blots were incubated with primary antibodies at 4° C. overnight. The membranes were washed, incubated with horse radish peroxidase conjugated goat anti-rabbit IgG (1:3000, Vector, AbCys, Paris, France) for 1 hr at room temperature, and developed using ECL Plus western blotting detection reagents (GE healthcare, Orsay, France). The j3-actin was used as internal control. The following primary antibodies were used: rabbit anti-alpha ENaC (1:500, Abcam, Cambridge, Mass., USA), rabbit anti-Kir4.1 (1:400, Alomone Labs, Jerusalem, Israel), rabbit anti-AQP4 (1:750, Millipore, St Quentin en Yvelines, France) and rabbit anti-j3-actin (1:1000, Abcam)

[2] = tested on: aquaporin 1; assay: Aquaporin 1 expression after exposure to aldosterone; details: normal rat, 24 hours exposure, low aldosterone dose (1-10 nM)
[3] = tested on: AQP4; assay: AQP4 mRNA expression in RMG cells (Example 2); format: cell-based
From the text: We have performed several experiments.

[4] = tested on: GFAP; assay: GFAP immunostaining of retinas from aldosterone-injected eyes (glial activation); format: in vivo, Lewis rats; details: intravitreous injection, vs sham-injected retinas
Procedure: Anesthesia of rats was induced by intramuscular injection of ketamine (100 mg/kg, Virbac, Carros, France) and chlorpromazine (0.65 mg/kg, LARGACTIL®, Sanofi Aventis, Livron sur Drome, France). Intravitreous injections were performed using microfine (300 μl) syringes with 30 G needles under topical anesthesia (tetracaine 1%, Aldrich, Lyon, France). Rat eyes were injected with 5 μl aldosterone diluted in 0.9% saline to obtain a concentration of 200 nM for injection, corresponding to a final concentration of 20 nM in the vitreous. Control rat eyes were injected with 5 μl saline. Twenty-four hrs after injection, rats were sacrificed. Eyes were then removed for retinal flat mounting, immunohistochemistry and morphological analysis respectively.
Eyes were fixed for 15 min in 4% paraformaldehyde (PFA, LADD, Inland Europe, Conflans-sur-Lanterne, France). After washing, retinas were isolated, cut by 4 orthogonal incisions and post-fixed with acetone 100% at −20° C. for 15 min. They were then rehydrated with phosphate-buffered saline (PBS) containing 1% Triton X-I00, and incubated with a polyclonal rabbit antibody against AQP4 (1:100) or a polyclonal rabbit antibody against glial fibrillary acidic protein (GF AP, 1:100, Dako, Trappes, France) at room temperature under stirring overnight. […]

[5] = tested on: retina; assay: Intraocular injection in Brown Norway rats (gain of function mutation in the MR gene): CSCR-like retinal pathology; format: in vivo; details: FIGS. 1 and 2
[6] = tested on: ENaC-α; assay: ENaC-α expression (real-time PCR, western blot) in rat RMG primary cultures and retinal explants; format: cell-based
Procedure: as §1, §2, §3, §4, §5

C[C@]12CCC(=O)C=C1CC[C@@H]1[C@@H]2[C@@H](O)C[C@]2(C=O)[C@@H](C(=O)CO)CC[C@@H]12 [aldosterone]
AQP4 mRNA expression ([1]; 24 hrs treatment, RMG primary cultures or retinal explants): increase | aquaporin 4 (AQP4) up-regulation ([1]; aldosterone 24 hrs): 2.9 fold | aldosterone concentration at which increase in AQP4 mRNA is saturated ([1]; dose-dependent effect, retinal explants): 10 nM | expression of aquaporin 4 (AQP4) ([1]; normal rat, 24 hours exposure, low aldosterone dose (1-10 nM)): enhances the expression | AQP4 expression at the protein level ([1]; western blot): increases | expression of aquaporin 1 [2]: reduces | expression of the water channel AQP4 [3]: up-regulates | glial (RMG) activation, GFAP distribution [4]: enhances glial activation; also recorded: strong activation of RMG | retinal pathology after intraocular injection [5]: develop a retinal pathology similar to CSCR; also recorded: vasodilation of choroid vessels, rupture of the junction between RPE cells, swallowing of the photoreceptor segments and sub retinal fluid accumulation; also recorded: develop a retinal pathology very close to CSCR | ENaC-α subunit mRNA expression ([6]; 24 hrs treatment, rat RMG primary cultures and retinal explants): significant up-regulation | dose dependence of ENaC-α transcripts ([6]; aldosterone 0.1-100 nM, retinal explants): dose dependent manner | expression of sodium channel ENaC-a ([6]; aldosterone 24 hrs): 6.5 fold | ENaC-α expression at the protein level ([6]; western blot, retinal explants): up-regulated
